Reference: publication PMC8878324, “Evaluation of New Antimicrobial Agents Based on tris(1H-Indol-3-yl)methylium Salts: Activity, Toxicity, Suppression of Experimental Sepsis in Mice” (Pharmaceuticals, 2022)

How the values were obtained:
SHK mice = assay: Acute toxicity study, intravenous; format: in vivo; conditions: for LD16 / LD84 / LD100: single intravenous; for time of death of animals after administration: in words
Protocol: (§1) In toxicological experiments with each compound, 72 to 108 animals were used and divided into 8 or 9 experimental groups (6 to 12 mice each), in which the animals received various doses of the tested compounds. There was also a control group of animals, which was injected with the corresponding solvent instead of the experimental compound, and a control group of intact animals. The prepared substances were injected into the animals intravenously (into the tail vein); the dose range was from 1.0 to 100 mg/kg.
(§2) The study was conducted on adult female SHK mice (18–20 g) obtained from the animal breeding unit of the FMBA (Scientific Center for Biomedical Technologies of the Federal Biomedical Agency, Moscow, Russia). The animals were randomly divided into groups (n = 6 for the study of acute toxicity, n = 10 (or 8) to study the efficacy of suppressing staphylococcal sepsis). The study of the effectiveness of drugs in the treatment of staphylococcal sepsis required the use of 110–175 mice for each drug, 10 animals per group. The animal study was approved by the Ethics of Animal Experimentation of Gause Institute of New Antibiotics (protocol No 13/2019).
(§3) To prepare solutions of preparations suitable for intravenous administration, dried test compounds with a purity of at least 99% were dissolved in a 5% glucose solution for intravenous administration at a concentration of 3.2 or 6.4 mg/mL. The solutions were sterilized by filtration through Sterivex 0.22 μm filters (Millipore, Burlington, MA, USA). Sterile solutions of drugs with a reduced concentration were then prepared, which allowed for the introduction ofvarious doses of drugs with the same volume (0.2 mL) of solutions. The test preparations were stored at a temperature no higher than 25 °C.
(§4) The study of acute toxicity of each drug was conducted on 72 mice (6 mice per group) using a solution of the test drug prepared in 5% glucose solution. The drug was injected into the tail vein of the animals (0.2 mL) using a syringe with a metal needle in a dose range of 1.0 mg/kg to 70 mg/kg.
(§5) From the first day after administration, the animals were under continuous observation. The number of dead animals and the time of their death were recorded daily. The body weight of the animals and their food consumption was recorded once a week, and the clinical signs of the animals’ health were assessed daily. The duration of observation of the animals was at least 30 days after the last death of the animal. Doses characterizing the toxicity of drugs were calculated by the Litchfield and Wilcoxon method using the StatPlus 2006 software AnalystSoft StatPlus—statistical analysis program, version 2006 (http://www.analystsoft.com/, accessed 11 January 2022). The mean and standard deviation were calculated for all data. The differences are defined as significant at p ≤ 0.05.

[1] = Acute toxicity study, intravenous; format: in vivo; conditions: female, SHK, mouse, in vivo, mice, single intravenous; for MTD: read-out: MTD (LD10)
Protocol: as §1, §2, §3, §4, §5

[2] = system: Candida albicans ATCC 14053; assay: MIC by broth microdilution (RPMI 1640); format: cell-based; conditions: ATCC14053
Protocol: (§6) We have tested the antimicrobial activity in vitro of over 100 tris(indolyl)methane derivatives against 16 strains of Gram-positive, Gram-negative bacteria and fungi including either sensitive or drug-resistant strains from ATCC, as well as resistant clinical isolates from the culture collection of the Laboratory for Control of Hospital Infections (Sechenov University, Moscow, Russia). The minimum inhibitory concentrations (MICs) were determined by the microdilution method in a cation-adjusted Müller–Hinton medium for bacteria and in a liquid culture medium RPMI 1640 with L-glutamine without sodium bicarbonate for fungi in accordance with the requirements of the Institute of Clinical and Laboratory Standards (CLSI/NCCLS). […] As a rule, their activity against Gram-negative bacteria was usually not that high. […] For comparison, the antimicrobial activity of prototype 4 is shown. The antibacterial antibiotic levofloxacin and the antifungal amphotericin B were used as reference drugs (Table 1).
(§7) The synthesis of compounds and the scheme of their preparation and purification, as well as physicochemical characteristics, were described earlier. To evaluate the biological activity in vitro, the compounds were dissolved in DMSO at a concentration of 2.0–6.4 mg/mL, followed by preparation of two-fold dilutions in the same solvent, if necessary. The solutions were further diluted in an aqueous medium for the final concentration of DMSO not to exceed 1%, and the concentration of the compounds ranged from 64.0 to 0.13 μg/mL. To study compounds in vivo, solutions for intravenous administration in 5% glucose solution were prepared. Solutions were sterilized by filtration through 0.22 µm filters (Millipore, Burlington, MA, USA).
(§8) Strains of Gram-positive, Gram-negative bacteria and fungi including sensitive or drug-resistant strains from ATCC, as well as resistant clinical isolates from the culture collection of the Laboratory for Control of Hospital Infections (Sechenov University, Moscow, Russia), were used. Clinical isolates of Gram-positive bacteria Staphylococcus aureus 5 (MRSA), Staphylococcus aureus 10, Staphylococcus aureus 100KC (MRSA), Staphylococcus epidermidis 533, Staphylococcus haemoliticus 585 and Enterococcus faecium 569, as well as collection cultures of Gram-positive bacteria Staphylococcus aureus ATCC 700699, Staphylococcus aureus ATCC 25923, Staphylococcus aureus ATCC 3798 and collection cultures of Gram-negative bacteria Escherichia coli ATCC 25922, Klebsiella pneumoniae ATCC 13883, Proteus vulgaris ATCC 13315, Salmonella cholerasuis ATCC 14028, Pseudomonas aeruginosa ATCC 27853 and collection cultures of the yeast Candida albicans ATCC 14053 and the fungi Aspergillus niger ATCC 16404 were used. To grow the microorganisms, we used Trypticase Soy Agar (TSA, Sigma-Aldrich Co., Burlington, MA, USA). Trypticase Soy Agar, BBL, was used for cultivation of Staphylococcus spp. and E. coli. For cultivation of Enterococcus spp. and P. aeruginosa we used a ready-made dry medium Columbia Agar Base, BBL. The media were sterilized by autoclaving at 121 °C for 15 min. Yeast culture C. albicans was grown on Sabouraud agar (peptone—10 g, glucose—40 g, agar—20 g, distilled water—1 L, pH 6.0), and filamentous fungi A. niger was grown on potato–glucose agar (potatoes—200 g, glucose—20 g, agar—15 g, distilled water—1 L, pH 5.5–6.0).
(§9) To determine the antibacterial effect, a liquid Müller–Hinton medium (Becton, Dickinson and Company, Cockeysville, MD, USA) was used; to determine the effect of compounds on fungi we used RPMI 1640 medium with L-glutamine, without sodium bicarbonate, which was prepared from a dry medium (ICN Biomedicals Inc., Costa Mesa, CA, USA) by dilution in distilled water, subsequent buffering with 0.165 M of morpholinepropanesulfonic acid (MOPS, Acros Organics B.V.B.A., Morris Plains, NJ, USA) and adjusting the pH of the medium to 7.0 by adding 1 N of NaOH solution. […]

[3] = system: Aspergillus niger ATCC 16404; assay: MIC by broth microdilution (RPMI 1640); format: cell-based; conditions: ATCC16404
Protocol: as §6, §7, §8, §9

OCCCCCn1cc([C+](c2cn(CCCCCO)c3ccccc23)c2cn(CCCCCO)c3ccccc23)c2ccccc21.[Cl-] [Compound 1, tris(1-(5-Hydroxypentyl)-1H-indol-3-yl) methylium chloride]
time of death of animals after drug administration (SHK mice; intravenous, lethal doses): ≤ 15 min | LD16 (SHK mice): 23.4 mg/kg | LD84 (SHK mice): 28.9 mg/kg | LD100 (SHK mice): 30.2 mg/kg | LD50 [1]: 26.2 mg/kg | MTD [1]: 22.6 mg/kg | MIC [2]: > 64 µg/mL | MIC [3]: > 64 µg/mL

CCCn1cc([C+](c2cn(CCC)c3ccccc23)c2cn(C3=C(N)C(=O)NC3=O)c3ccccc23)c2ccccc21.[Cl-] [Compound 2, (1-(4-Amino-2,5-dioxo-2,5-dihydro-1H-pyrrol-3-yl)-1H-indol-3-yl)bis(1-propyl-1H-indol-3-yl) methylium chloride]
lethal dose causing the death of more than 50% of the animals (SHK mice; intravenous): 35 to 50 mg/kg | time of death of animals after administration (SHK mice; intravenous): in the first two hours after administration | LD16 (SHK mice): 35.8 mg/kg | LD84 (SHK mice): 47.7 mg/kg | LD100 (SHK mice): 50.7 mg/kg | LD50 [1]: 41.8 mg/kg | MTD [1]: 34.1 mg/kg | MIC [2]: 12 µg/mL | MIC [3]: 8 µg/mL

CCCn1cc([C+](c2cn(CCC)c3ccccc23)c2cn(C3=C(N(C)C)C(=O)NC3=O)c3ccccc23)c2ccccc21 [Compound 3, 1-(4-Dimethylamino-2,5-dioxo-2,5-dihydro-1H-pyrrol-3-yl) -1H-indol-3-yl) bis(1-propyl-1H-indol-3-yl) methylium chloride]
lethal dose causing the death of more than 50% of the animals (SHK mice; intravenous): 25 to 40 mg/kg | time of death of animals after administration (SHK mice; intravenous): during the first day after administration | LD16 (SHK mice): 18.5 mg/kg | LD84 (SHK mice): 29.8 mg/kg | LD100 (SHK mice): 32.6 mg/kg | LD50 [1]: 24.2 mg/kg | MTD [1]: 16.9 mg/kg | MIC [2]: 2 µg/mL | MIC [3]: 2 µg/mL
